Test results reported in patent US20090118263A1, “Novel Adenine Compound” (priority 2005, published 2009).

Biological target: T1, human TLR7 (Homo sapiens, UniProt Q9NYK1)
T1 construct: expressed in transfected cells; host or cells: HEK293 (hTLR7/seap-293), stably transfected with the TLR7 plasmid and the NF-kB-SEAP reporter plasmid
T1 sequence (Q9NYK1 27-1049): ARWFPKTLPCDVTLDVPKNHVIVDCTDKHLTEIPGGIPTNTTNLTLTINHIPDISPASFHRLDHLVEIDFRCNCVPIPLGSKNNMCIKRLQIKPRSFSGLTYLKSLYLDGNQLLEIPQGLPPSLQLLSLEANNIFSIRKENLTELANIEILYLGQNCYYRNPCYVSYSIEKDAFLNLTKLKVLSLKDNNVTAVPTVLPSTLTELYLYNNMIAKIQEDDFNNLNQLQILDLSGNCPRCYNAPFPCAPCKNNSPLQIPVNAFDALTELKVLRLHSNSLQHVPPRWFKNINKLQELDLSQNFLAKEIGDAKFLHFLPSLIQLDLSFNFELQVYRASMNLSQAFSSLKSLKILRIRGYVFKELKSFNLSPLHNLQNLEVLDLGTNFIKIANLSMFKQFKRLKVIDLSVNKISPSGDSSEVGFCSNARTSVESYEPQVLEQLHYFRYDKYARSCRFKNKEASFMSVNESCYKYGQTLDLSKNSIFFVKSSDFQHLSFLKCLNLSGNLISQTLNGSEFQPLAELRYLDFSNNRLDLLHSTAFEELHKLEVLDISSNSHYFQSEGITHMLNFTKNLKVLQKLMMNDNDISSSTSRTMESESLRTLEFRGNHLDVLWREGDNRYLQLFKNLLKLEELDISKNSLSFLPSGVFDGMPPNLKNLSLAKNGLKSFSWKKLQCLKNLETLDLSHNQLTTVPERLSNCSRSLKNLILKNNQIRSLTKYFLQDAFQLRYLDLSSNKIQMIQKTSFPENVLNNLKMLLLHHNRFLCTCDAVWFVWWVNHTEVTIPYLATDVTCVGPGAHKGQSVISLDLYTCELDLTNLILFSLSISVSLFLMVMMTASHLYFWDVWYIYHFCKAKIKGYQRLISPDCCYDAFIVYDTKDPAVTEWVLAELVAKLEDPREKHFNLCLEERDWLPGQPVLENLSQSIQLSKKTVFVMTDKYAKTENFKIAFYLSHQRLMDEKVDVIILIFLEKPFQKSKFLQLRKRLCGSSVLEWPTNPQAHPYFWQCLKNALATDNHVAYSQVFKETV
Assay: Human TLR7 reporter assay (NF-kB-SEAP in HEK293 cells)
Assay type: cell-based
Details: HEK293 cells stably carrying human TLR7 plasmid and NF-kB-SEAP reporter plasmid; 20 hours culture; 1 nM-10 μM; absorbance 405 nm; read-out: Human TLR7 binding activity (EC50)
Description: Human TLR7 Reporter Assay
HEK293 cells in which human TLR7 or rat TLR7 plasmid and reporter plasmid (NF-kB-SEAP) are stably introduced are dispersed in DMEM broth (10% FBS, 1% NEAA, 10 ug/mL blastocidin S HCl, 100 ug/mL Zeocin), and were seeded to 96 well plate per 90 μl/well (hTLR7/seap-293:20000 cells/well, rTLR7/seap-293:25000 cells/well).
Test compound (DMSO stock solution (2 μl) was diluted with the broth (200 μl) by 100 times) was added to the seeded cells to a 96 well plate (10 μl/well) (final concentration; 1 nM-10 μM, common ratio). After stirring by tapping side of the plate, the cells were cultured in a CO2 incubator for 20 hours. A substrate (50 μl/well) for reporter assay (substrate for SEAP, pNPP) was added to cells stimulated by test sample. Ten minutes after adding the substrate, the reaction quenching solution (4N NaOH) was added by 50 μl/well to cease enzymatic reaction. Sealing a top seal A on the plate, the absorbance was measured by a micro plate reader (405 nm).

Row | Compound | EC50 [nM]
1 | CCCCOc1nc(N)c2[nH]c(=O)n(Cc3ccc(CN(C)CCOc4cccc(CC(=O)OC)c4)cc3)c2n1 [Example 9, 2-Butoxy-7,8-dihydro-9-[4-(N-{2-[3-(methoxycarbonylmethyl)phenoxy]ethyl}-N-methylaminomethyl)benzyl]-8-oxoadenine] | 28.3
2 | CCCCOc1nc(N)c2[nH]c(=O)n(Cc3ccc(OCCCCNCc4cccc(CC(=O)OC)c4)nc3)c2n1 [Example 12, 2-Butoxy-7,8-dihydro-9-{6-[4-(3-methoxycarbonylmethylbenzyl)aminobutoxy]pyridin-3-ylmethyl}-8-oxoadenine] | 9.1
3 | CCCCOc1nc(N)c2[nH]c(=O)n(Cc3ccc(OCCCCN(C)Cc4cccc(CC(=O)O)c4)nc3)c2n1 [Example 16, 2-Butoxy-7,8-dihydro-9-[6-(4-[{N-[3-(carboxymethyl)benzyl]-N-methyl}amino]butoxy)pyridin-3-ylmethyl]-8-oxoadenine] | 29.6
4 | CCCCOc1nc(N)c2[nH]c(=O)n(Cc3ccc(CN(CCCO)Cc4cccc(CC(=O)OC)c4)cc3)c2n1 [Example 5, 2-Butoxy-7,8-dihydro-9-(4-{N-(3-hydroxypropyl)-N-[3-(methoxycarbonylmethyl)benzyl]aminomethyl}benzyl)-8-oxoadenine] | 40.8
5 | CCCCOc1nc(N)c2[nH]c(=O)n(Cc3ccc(OCCCCN(C)Cc4cccc(CC(=O)OC)c4)nc3)c2n1 [Example 15, 2-Butoxy-7,8-dihydro-9-[6-(4-[{N-methyl-N-[3-(methoxycarbonylmethyl)benzyl]}amino]butoxy)pyridin-3-ylmethyl]-8-oxoadenine] | 9.4
6 | CCCCOc1nc(N)c2[nH]c(=O)n(Cc3ccc(OCCCN(C)Cc4cccc(CC(=O)OC)c4)cc3)c2n1 [Example 1, 2-Butoxy-7,8-dihydro-9-[(3-[{N-methyl-N-[3-(methoxycarbonylmethyl)benzyl]}amino]propoxy)benzyl]-8-oxoadenine] | 26
7 | COCCOc1nc(N)c2[nH]c(=O)n(Cc3ccc(CN(C)CCOc4cccc(CC(=O)OC)c4)cc3)c2n1 [Example 19, 7,8-Dihydro-9-[4-{N-[2-(3-methoxycarbonylmethylphenyl-1-yl)oxyethyl]-N-methylamino}methylbenzyl]-2-(2-methoxyethoxy)-8-oxoadenine] | 51.5
8 | CCCCOc1nc(N)c2[nH]c(=O)n(Cc3ccc(CN(CCCN4CCOCC4)Cc4cccc(CC(=O)O)c4)cc3)c2n1 [Example 8, 2-Butoxy-7,8-dihydro-9-(4-{N-[3-(hydroxycarbonylmethyl)benzyl]-N-(3-morpholin-4-ylpropyl)aminomethyl}benzyl)-8-oxoadenine] | 253
9 | CCCCOc1nc(N)c2[nH]c(=O)n(Cc3ccc(CN(CCCN4CCOCC4)Cc4cccc(CC(=O)OC)c4)cc3)c2n1 [Example 7, 2-Butoxy-7,8-dihydro-9-(4-{N-[3-(methoxycarbonylmethyl)benzyl]-N-(3-morpholin-4-ylpropyl)aminomethyl}benzyl)-8-oxoadenine] | 24.1
10 | CCCCOc1nc(N)c2[nH]c(=O)n(Cc3ccc(OCCCNCc4cccc(CC(=O)OC)c4)cc3)c2n1 [Example 3, 2-Butoxy-7,8-dihydro-9-([3-{N-[3-(methoxycarbonylmethyl)benzyl]amino}propoxy]benzyl)-8-oxoadenine] | 20.4
11 | CCCCOc1nc(N)c2[nH]c(=O)n(Cc3ccc(CN(C)CCOc4cc(CC(=O)OC)ccc4OC)cc3)c2n1 [Example 11, 2-Butoxy-7,8-dihydro-9-[4-(N-{2-[2-methoxy-5-(methoxycarbonylmethyl)phenoxy]ethyl}-N-methylaminomethyl)benzyl]-8-oxoadenine] | 21
12 | CCCCOc1nc(N)c2[nH]c(=O)n(Cc3ccc(OCCCCN(CCCN4CCOCC4)Cc4cccc(CC(=O)OC)c4)nc3)c2n1 [Example 17, 2-Butoxy-7,8-dihydro-9-(6-[4-{[N-(3-methoxycarbonylmethylbenzyl)-N-(3-morpholinopropyl)]amino}butoxy]pyridin-3-ylmethyl)-8-oxoadenine] | 20.7
